We go through twelve compounds from article PMC9354042, “Discovery of BRAF/HDAC Dual Inhibitors Suppressing Proliferation of Human Colorectal Cancer Cells” (Frontiers in Chemistry, 2022).

One test deals with T1, HDAC6 (Homo sapiens, UniProt Q9UBN7).
T1 construct: purchased BPS Bioscience
T1 sequence (Q9UBN7 1-1215): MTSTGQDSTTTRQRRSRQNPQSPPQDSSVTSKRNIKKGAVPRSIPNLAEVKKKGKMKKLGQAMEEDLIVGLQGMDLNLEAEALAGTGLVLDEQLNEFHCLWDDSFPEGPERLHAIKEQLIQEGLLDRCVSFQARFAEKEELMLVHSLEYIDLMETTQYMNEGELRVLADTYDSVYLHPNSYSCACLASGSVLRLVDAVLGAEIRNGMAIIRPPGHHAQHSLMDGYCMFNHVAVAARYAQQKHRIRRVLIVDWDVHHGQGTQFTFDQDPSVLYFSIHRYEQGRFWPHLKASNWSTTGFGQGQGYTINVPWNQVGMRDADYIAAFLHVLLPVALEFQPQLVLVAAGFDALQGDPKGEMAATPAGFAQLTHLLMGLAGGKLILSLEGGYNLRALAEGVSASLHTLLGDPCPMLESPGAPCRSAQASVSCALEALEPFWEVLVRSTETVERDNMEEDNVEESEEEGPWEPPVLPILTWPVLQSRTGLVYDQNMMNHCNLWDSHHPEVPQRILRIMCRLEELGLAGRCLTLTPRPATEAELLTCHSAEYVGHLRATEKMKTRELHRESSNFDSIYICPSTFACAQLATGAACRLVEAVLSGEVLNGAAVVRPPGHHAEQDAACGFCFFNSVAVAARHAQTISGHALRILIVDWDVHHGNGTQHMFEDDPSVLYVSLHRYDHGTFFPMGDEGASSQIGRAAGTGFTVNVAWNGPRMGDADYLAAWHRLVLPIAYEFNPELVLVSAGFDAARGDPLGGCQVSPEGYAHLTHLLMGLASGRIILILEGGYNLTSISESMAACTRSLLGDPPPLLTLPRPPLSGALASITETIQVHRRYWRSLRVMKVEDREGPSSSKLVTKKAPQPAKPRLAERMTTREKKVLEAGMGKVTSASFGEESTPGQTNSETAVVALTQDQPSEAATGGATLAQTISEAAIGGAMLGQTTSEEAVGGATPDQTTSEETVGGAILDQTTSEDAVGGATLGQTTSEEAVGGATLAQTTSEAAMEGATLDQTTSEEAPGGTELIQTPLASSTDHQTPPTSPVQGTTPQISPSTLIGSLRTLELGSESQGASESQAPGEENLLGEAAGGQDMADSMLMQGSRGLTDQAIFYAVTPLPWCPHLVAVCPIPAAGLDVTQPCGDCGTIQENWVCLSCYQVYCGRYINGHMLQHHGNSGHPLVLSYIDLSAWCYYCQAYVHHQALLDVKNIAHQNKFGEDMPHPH
The experiment in a line: HDAC6 fluorescent-based enzymatic activity assay. Format: biochemical. To be noted: Table 1; read-out: Enzymatic IC50 HDAC6. The procedure:
(§1) The purified recombinant Human HDACs and their corresponding substrates were purchased from BPS Bioscience (BPS Bioscience Inc., United States). The assays were carried out in a 384-well format using the BPS fluorescent–based HDAC activity assay according to the manufacturer’s protocol. In brief, […] of the HDAC reaction mixture was composed of HDAC assay buffer, […] BSA, serial diluted test compounds, appropriate concentration of HDACs, and […] fluorogenic substrate, the mixture was incubated at 37°C for 60 min, and then stopped by the addition of developer containing trypsin and TSA. After 20 min of incubation, the fluorescence was detected at the excitation wavelength of 360 nm and the emission wavelength of 460 nm using the EnVision Multilabel Reader (PerkinElmer Inc., United States). The analytical software, GraphPad Prism 5.0 (GraphPad Software, Inc., United States) was used to generate IC50 value via non-linear regression analysis.

The target of a further test is T2, HDAC1 (Homo sapiens, UniProt Q13547).
T2 construct: purchased BPS Bioscience
The experiment in a line: HDAC1 fluorescent-based enzymatic activity assay. It is filed as biochemical. To be noted: Table 1; read-out: Enzymatic IC50 HDAC1. The protocol: as §1

The subject of another test is HT-29 cells. The test is described as follows: Antiproliferation CCK-8 assay, HT-29. To be noted: Homo sapiens; CCK-8, 72 h, HT-29 (BRAF^V600E); means of three independent experiments; read-out: Cellular IC50 HT-29. It is filed as cell-based. The protocol: (§2) HCT116 and HT-29 cells were obtained from the Shanghai Cell Bank (Type Culture Collection (TCC), Chinese Academy of Sciences) and cultured in DMEM (10–013-CVR, corning) supplemented with 10% fetal bovine serum (04-001-1A, BI), 1% penicillin/streptomycin (03-031-1B, BI).
(§3) The cells in the logarithmic phase were placed in 96-well plates (∼3000 cells/well) in a complete medium. After incubation overnight, the cells were exposed to the corresponding compounds or vehicle control at the indicated concentration for a further 72 h. Cell proliferation was evaluated using Cell Counting Kit 8 (CCK8, CK04, Dojindo Laboratories, Kumamoto, Japan). OD450 and OD650 were determined using a microplate reader. Absorbance rate (A) for each well was calculated as OD450 −OD650. […] Each IC50 value is expressed as mean ± SD. As is the absorbance rate of the test compound well, Ac is the absorbance rate of the well without either the cell or test compound, and Ab is the absorbance rate of the well with the cell and vehicle control.

The next test relates to HCT116 cells. The experiment in a line: Antiproliferation CCK-8 assay, HCT116. It is filed as cell-based. To be noted: Homo sapiens, HCT-116; CCK-8, 72 h, HCT116 (wild-type BRAF); means of three independent experiments; read-out: Cellular IC50 HCT116. The protocol: as §2, §3
On the technique in general: Formazan colour is commonly taken as a measure of viable cells.

The target in the next test is T3, BRAF^V600E (Homo sapiens, UniProt P15056, V600E).
T3 construct: purchased Invitrogen
The test is described as follows: BRAF V600E enzymatic activity, FRET-based Z'-Lyte kinase assay. Format: biochemical. The protocol:
The experiments were performed according to the instructions of the manufacturer. […] For each assay, 10 μl kinase reactions were added to 384-well plate, mixed thoroughly, and incubated for 1 hour at room temperature. Then, a 5 μl development solution was added to each well and the plate was incubated for another 1 h at room temperature. Then, a 5 μl stop reagent was loaded to stop the reaction. For the control setting, a 5 μl phospho-peptide solution instead of kinase/peptide mixture was used as 100% phosphorylation control. […] The plate was measured on an EnVision Multilabel Reader (Perkin-Elmer). Curve fitting and data presentations were performed using GraphPad Prism, version 5.0. Every experiment was repeated at least two times.

Each structure is given as a SMILES string.

T2 sequence (Q13547 whole entry): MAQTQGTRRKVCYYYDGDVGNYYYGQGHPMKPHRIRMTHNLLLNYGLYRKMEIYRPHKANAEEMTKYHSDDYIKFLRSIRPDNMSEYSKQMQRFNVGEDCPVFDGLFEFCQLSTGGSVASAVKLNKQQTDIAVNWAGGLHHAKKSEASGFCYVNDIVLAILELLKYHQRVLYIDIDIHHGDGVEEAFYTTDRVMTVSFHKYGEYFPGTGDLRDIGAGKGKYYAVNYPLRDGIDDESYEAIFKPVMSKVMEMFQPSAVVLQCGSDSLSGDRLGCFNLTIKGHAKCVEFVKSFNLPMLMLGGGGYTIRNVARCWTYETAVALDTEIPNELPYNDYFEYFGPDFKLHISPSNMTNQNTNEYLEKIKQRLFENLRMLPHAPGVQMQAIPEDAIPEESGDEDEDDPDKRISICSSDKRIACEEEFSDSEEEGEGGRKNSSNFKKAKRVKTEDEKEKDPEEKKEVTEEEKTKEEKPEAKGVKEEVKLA
T3 sequence (P15056 whole entry V600E): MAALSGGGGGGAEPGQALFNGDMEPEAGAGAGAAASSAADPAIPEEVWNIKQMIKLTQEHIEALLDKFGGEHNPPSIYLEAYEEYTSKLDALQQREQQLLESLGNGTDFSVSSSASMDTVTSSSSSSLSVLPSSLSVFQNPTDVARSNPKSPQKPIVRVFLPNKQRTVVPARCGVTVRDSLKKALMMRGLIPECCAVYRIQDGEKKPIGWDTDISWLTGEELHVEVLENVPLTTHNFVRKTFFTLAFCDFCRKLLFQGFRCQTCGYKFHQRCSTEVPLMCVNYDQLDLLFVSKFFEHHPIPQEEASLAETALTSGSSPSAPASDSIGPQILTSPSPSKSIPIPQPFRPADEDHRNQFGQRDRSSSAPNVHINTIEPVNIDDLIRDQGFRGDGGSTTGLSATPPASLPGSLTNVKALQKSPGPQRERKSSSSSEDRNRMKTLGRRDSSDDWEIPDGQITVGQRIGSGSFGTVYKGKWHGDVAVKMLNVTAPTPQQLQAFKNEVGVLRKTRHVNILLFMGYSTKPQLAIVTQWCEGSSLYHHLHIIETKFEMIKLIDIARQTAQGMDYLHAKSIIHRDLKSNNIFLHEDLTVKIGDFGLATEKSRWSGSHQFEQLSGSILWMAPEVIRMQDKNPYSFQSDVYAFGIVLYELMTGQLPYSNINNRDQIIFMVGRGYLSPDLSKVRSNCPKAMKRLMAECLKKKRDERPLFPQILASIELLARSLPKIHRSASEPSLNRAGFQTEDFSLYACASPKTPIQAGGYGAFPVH

What is called IC50 is the midpoint of a concentration-inhibition curve. With `CC(C)c1nc(-c2cccc(NS(=O)(=O)c3c(F)cccc3F)c2F)c(-c2ccnc(NCCCCCCC(=O)NO)n2)s1` [14g, 7-{[4-(4-(3-(2,6-Difluorophenylsulfonamido)-2-Fluorophenyl)-2-Isopropylthiazol-5-yl)Pyrimidin-2-yl]Amino}-N-Hydroxyheptanamide], the concentration for half-maximal inhibition (IC50) at HDAC6 was determined as 30 nM; on HDAC1, 130 nM; in the test with HT-29 cells it was 990 nM; in the test on HCT116 cells it was 2680 nM; on BRAF^V600E, 1.51 nM.
Consider `Cc1nc(-c2cccc(NS(C)(=O)=O)c2F)c(-c2ccnc(NCCCCCCC(=O)NO)n2)s1` [21d, 7-{[4-(4-(2-Fluoro-3-(Methylsulfonamido)Phenyl)-2-Methylthiazol-5-yl)Pyrimidin-2-yl]Amino}-N-Hydroxyheptanamide], for which the IC50 at HDAC6 was 21.8 nM; at HDAC1, 71 nM; in the test on HT-29 cells, > 10000 nM; with HCT116 cells, > 10000 nM; against BRAF^V600E, 258 nM.
`CCc1nc(-c2cccc(NS(=O)(=O)c3c(F)cccc3F)c2F)c(-c2ccnc(NCCCCCCC(=O)NO)n2)s1` [14f, 7-{[4-(4-(3-(2,6-Difluorophenylsulfonamido)-2-Fluorophenyl)-2-Ethylthiazol-5-yl)Pyrimidin-2-yl]Amino}-N-Hydroxyheptanamide]: the IC50 at HDAC6 is 26.5 nM; on HDAC1, 61.3 nM; in the test on HT-29 cells it was 1270 nM; in the test on HCT116 cells, 4270 nM; against BRAF^V600E, 1.66 nM.
As for `Cc1nc(-c2cccc(NS(=O)(=O)c3c(F)cccc3F)c2F)c(-c2ccnc(NCCCCCCC(=O)NO)n2)s1` [14e, 7-{[4-(4-(3-(2,6-Difluorophenylsulfonamido)-2-Fluorophenyl)-2-Methylthiazol-5-yl)Pyrimidin-2-yl]Amino}-N-Hydroxyheptanamide], the IC50 was 14.6 nM on HDAC6; 42.2 nM on HDAC1; 6390 nM with HT-29 cells; 7530 nM in the test with HCT116 cells; 3.5 nM against BRAF^V600E.
Turning to `CCCS(=O)(=O)Nc1cccc(-c2nc(C(C)(C)C)sc2-c2ccnc(NCCCCCCC(=O)NO)n2)c1F` [21b, 7-{[4-(2-(Tert-Butyl)-4-(2-Fluoro-3-(Propylsulfonamido)Phenyl)Thiazol-5-yl)Pyrimidin-2-yl]Amino}-N-Hydroxyheptanamide], the IC50 stood at 72.1 nM on HDAC6; 432 nM at HDAC1; 780 nM in the test on HT-29 cells; 5440 nM in the test with HCT116 cells; 1.71 nM against BRAF^V600E.
The corresponding values for `O=C(CCCCCCNc1nccc(-c2sc(C3CC3)nc2-c2cccc(NS(=O)(=O)c3c(F)cccc3F)c2F)n1)NO` [14h, 7-{[4-(2-Cyclopropyl-4-(3-(2,6-Difluorophenylsulfonamido)-2-Fluorophenyl)Thiazol-5-yl)Pyrimidin-2-yl]Amino}-N-Hydroxyheptanamide] are 27.1 nM, 49.8 nM, 2210 nM, 4710 nM and 1.31 nM.
The matching figures for `CC(C)(C)c1nc(-c2cccc(NS(=O)(=O)c3c(F)cccc3F)c2F)c(-c2ccnc(NCCCCCC(=O)NO)n2)s1` [14a]: 1210 nM, 679 nM, 1000 nM, 3000 nM and 3.25 nM.
With `CC(C)(C)c1nc(-c2cccc(NS(=O)(=O)c3c(F)cccc3F)c2F)c(-c2ccnc(NCCCCCCCCC(=O)NO)n2)s1` [14d, 9-{[4-(2-(Tert-Butyl)-4-(3-(2,6-Difluorophenylsulfonamido)-2-Fluorophenyl)Thiazol-5-yl)Pyrimidin-2-yl]Amino}-N-Hydroxynonanamide], the half-inhibitory concentration (IC50) was 322 nM on HDAC6; 765 nM on HDAC1; 480 nM with HT-29 cells; 3660 nM with HCT116 cells; 3.82 nM at BRAF^V600E.
The matching figures for `Cc1nc(-c2cccc(NS(=O)(=O)c3ccccc3)c2F)c(-c2ccnc(NCCCCCCC(=O)NO)n2)s1` [21f, 7-{[4-(4-(2-Fluoro-3-(Phenylsulfonamido)Phenyl)-2-Methylthiazol-5-yl)Pyrimidin-2-yl]Amino}-N-Hydroxyheptanamide]: 18.7 nM, 49.4 nM, 4960 nM, 4410 nM and 3.92 nM.
The matching figures for `CC(C)(C)c1nc(-c2cccc(NS(=O)(=O)c3c(F)cccc3F)c2F)c(-c2ccnc(NCCCCCCCC(=O)NO)n2)s1` [14c, 8-{[4-(2-(Tert-Butyl)-4-(3-(2,6-Difluorophenylsulfonamido)-2-Fluorophenyl)Thiazol-5-yl)Pyrimidin-2-yl]Amino}-N-Hydroxyoctanamide]: 128 nM, 312 nM, 880 nM, 4470 nM and 2.27 nM.
The matching figures for `CCCc1nc(-c2cccc(NS(=O)(=O)c3c(F)cccc3F)c2F)c(-c2ccnc(NCCCCCCC(=O)NO)n2)s1` [14i, 7-{[4-(4-(3-(2,6-Difluorophenylsulfonamido)-2-Fluorophenyl)-2-Propylthiazol-5-yl)Pyrimidin-2-yl]Amino}-N-Hydroxyheptanamide]: 64.6 nM, 105 nM, 970 nM, 3080 nM and 1.07 nM.
`CCS(=O)(=O)Nc1cccc(-c2nc(C)sc2-c2ccnc(NCCCCCCC(=O)NO)n2)c1F` [21e, 7-{[4-(4-(3-(Ethylsulfonamido)-2-Fluorophenyl)-2-Methylthiazol-5-yl)Pyrimidin-2-yl]Amino}-N-Hydroxyheptanamide]: the IC50 at HDAC6 was 18.8 nM; at HDAC1, 52.2 nM; in the test on HT-29 cells, > 10000 nM; with HCT116 cells, 9150 nM; against BRAF^V600E, 107 nM.
